# In US20210214358A1, “CDK4/6 INHIBITOR AND PHARMACEUTICALLY ACCEPTABLE SALT AND POLYMORPH THEREOF AND USE THEREOF” (SHANGHAI HAIYAN PHARMACEUTICAL TECHNOLOGY CO., LTD., priority 2018, published 2021):
# Assays:
# CDK1 = molecular target: T1, CDK1 (Homo sapiens, UniProt P06493); test: Kinase test in vitro (LANCE Ultra, Ulight-4EBP1); type: biochemical
# T1 construct: purchased BPS
# From the text: (§1) Recombinant CDK1, CCNB1 and CDK9, and CCNT were purchased from BPS; CDK2, CCNA1, CDK4, CCND1 and CDK6, and CCND1 were purchased from Invitrogen; CDK4, CycD3 and CDK6, and CycD3 were purchased from Carna. Adenosine triphosphate (ATP) was purchased from Life tech. Substrate Ulight-4EBP1 and the corresponding detection antibody were purchased from Perkinelmer. LANCE Ultra system from Perkinelmer is used as the detection system.
# (§2) In the kinase test, a compound to be tested was 1:3 diluted for 8 gradient points and added into a reaction plate, and then an appropriate amount of recombinase was added. A buffer [50 mM HEPES pH7.5, 10 mM MgCl2, 3 mM MnCl2, 1 mM EGTA, 0.01% Tween-20, 1 mM TCEP] containing ATP, Ulight-4EBP1 premix at a predetermined concentration was subsequently added, and the kinase reaction began at room temperature. A test solution pre-mixed with 10 mM EDTA and detection antibody was added after a suitable reaction time, and then the fluorescence value was read on Tecan infinite pro after reacting for 1 hour at room temperature. The IC50 was calculated using a four-factor model fitting in a XLfit software.
# CDK2 = molecular target: T2, CDK2 (Homo sapiens, UniProt P24941); test: Kinase test in vitro (LANCE Ultra, Ulight-4EBP1); type: biochemical
# T2 construct: purchased Invitrogen
# From the text: as §1, §2
# CDK4 = molecular target: T3, CDK4 (Homo sapiens, UniProt P11802); test: Kinase test in vitro (LANCE Ultra, Ulight-4EBP1); type: biochemical
# T3 construct: purchased Invitrogen or Carna
# From the text: as §1, §2
# CDK6 = molecular target: T4, CDK6 (Homo sapiens, UniProt Q00534); test: Kinase test in vitro (LANCE Ultra, Ulight-4EBP1); type: biochemical
# T4 construct: purchased Invitrogen or Carna
# From the text: as §1, §2
# [1] = Pharmacokinetics and brain distribution test; type: in vivo, SD rats; conditions: rats, oral 10 mg/kg
# Protocol: Test Animals: healthy adult male SD rats (weight 210-230 g per rat, 12 rats, fasted overnight, fed 4 hours after dosing), provided by SLAC company; preparation of oral solution: 40.14 mg of compound P-53 was weighed and added into a clean tube, and 36.479 mL of 0.5% HPC-H (TCI, E6ZQA) in acetate buffer (PH4.5) was added into the tube. The mixture was then vortexed for 1-2 min. Then the solution was sonicated for 20-25 min and stirred for 20-25 min.
# SD rats were administered via intragastric administration (10 mg/kg (10 mL/kg)); samples were collected at 0.5, 1, 2 and 4 hr after dosing (total 4 timepoints), wherein only plasma samples were collected continuously, and brain tissue and cerebrospinal fluid were collected at each time point.
# Blood collection: The animal was restrained manually and at each time point collected approximately 150 μL blood via tail vein into a K2EDTA-containing tube. Within 15 minutes, the blood sample was put on wet ice and centrifuged to obtain plasma sample (2000 g, 5 min under 4° C.). […]
# Analytical method: the plasma and brain of SD rats were used as matrix, and Glipizide was used as an internal standard. […] The drug concentration was determined by LC-MS/MS method, the pharmacokinetic parameters in the plasma, brain tissue, and cerebrospinal fluid of rats are shown in Table 8: […]
# T4 sequence (Q00534 whole entry): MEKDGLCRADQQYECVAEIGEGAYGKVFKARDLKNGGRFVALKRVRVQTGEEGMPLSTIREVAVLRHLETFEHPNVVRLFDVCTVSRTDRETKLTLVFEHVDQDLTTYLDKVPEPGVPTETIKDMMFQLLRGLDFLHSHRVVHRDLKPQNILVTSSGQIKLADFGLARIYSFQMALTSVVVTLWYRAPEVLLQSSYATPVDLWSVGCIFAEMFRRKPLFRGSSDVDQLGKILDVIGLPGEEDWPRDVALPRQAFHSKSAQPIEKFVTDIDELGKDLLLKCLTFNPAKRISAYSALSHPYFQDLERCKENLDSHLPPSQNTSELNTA
# T4 sequence (P24385 whole entry partner): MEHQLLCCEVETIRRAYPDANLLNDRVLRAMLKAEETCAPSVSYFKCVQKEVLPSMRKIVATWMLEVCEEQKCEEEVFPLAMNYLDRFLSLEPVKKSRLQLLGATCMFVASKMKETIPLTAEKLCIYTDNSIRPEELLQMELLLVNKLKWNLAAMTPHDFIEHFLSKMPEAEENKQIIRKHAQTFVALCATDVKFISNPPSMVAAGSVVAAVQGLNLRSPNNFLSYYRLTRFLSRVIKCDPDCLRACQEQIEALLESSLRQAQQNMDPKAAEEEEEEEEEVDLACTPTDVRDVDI
# T3 sequence (P11802 whole entry): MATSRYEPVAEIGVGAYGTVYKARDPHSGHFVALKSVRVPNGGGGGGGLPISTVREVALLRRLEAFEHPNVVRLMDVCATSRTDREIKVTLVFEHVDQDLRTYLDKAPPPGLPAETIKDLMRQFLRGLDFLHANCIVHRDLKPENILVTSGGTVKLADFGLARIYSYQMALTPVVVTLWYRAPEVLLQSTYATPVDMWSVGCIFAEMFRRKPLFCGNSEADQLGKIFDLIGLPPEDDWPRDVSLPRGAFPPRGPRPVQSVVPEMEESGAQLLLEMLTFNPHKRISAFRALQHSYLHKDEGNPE
# T3 sequence (P24385 whole entry partner): as the sequence (P24385 whole entry partner) above
# T1 sequence (P06493 whole entry): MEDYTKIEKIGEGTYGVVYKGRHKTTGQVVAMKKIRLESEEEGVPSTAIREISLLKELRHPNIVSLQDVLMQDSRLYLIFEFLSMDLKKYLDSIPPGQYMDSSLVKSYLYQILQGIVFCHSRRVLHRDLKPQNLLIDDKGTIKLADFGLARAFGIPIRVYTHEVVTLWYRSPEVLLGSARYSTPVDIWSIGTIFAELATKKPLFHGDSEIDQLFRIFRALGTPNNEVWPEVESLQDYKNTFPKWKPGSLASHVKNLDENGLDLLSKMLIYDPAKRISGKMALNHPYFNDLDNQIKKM
# T1 sequence (P14635 whole entry partner): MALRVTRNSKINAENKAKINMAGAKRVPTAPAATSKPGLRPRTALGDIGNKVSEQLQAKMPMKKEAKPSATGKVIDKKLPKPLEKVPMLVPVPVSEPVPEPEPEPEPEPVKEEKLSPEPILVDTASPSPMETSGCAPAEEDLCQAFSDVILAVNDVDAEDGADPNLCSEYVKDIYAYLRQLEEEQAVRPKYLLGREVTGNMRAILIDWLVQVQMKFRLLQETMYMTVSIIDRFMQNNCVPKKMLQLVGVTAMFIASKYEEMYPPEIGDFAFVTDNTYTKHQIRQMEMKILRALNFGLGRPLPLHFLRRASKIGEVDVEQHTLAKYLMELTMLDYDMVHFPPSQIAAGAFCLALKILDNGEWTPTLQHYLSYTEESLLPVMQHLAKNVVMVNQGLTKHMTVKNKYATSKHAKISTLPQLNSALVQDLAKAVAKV
smiles,measurement,setting,value
"CCN1CCN(Cc2ccc(Nc3ncc4c(n3)-c3c(nc(C5CC5)n3C(C)C)C4)nc2)CC1 [Free base of compound of formula X, 2-cyclopropyl-N-(5-((4-ethylpiperazin-1-yl)methyl)pyridin-2-yl)-3-isopropyl-3,8-dihydroimidazo[4′,5′,4,5]cyclopenta[1,2-d]pyrimidin-5-amine]",IC50,CDK1,6.09 µM
same,inhibitory activity against CDK1 (in words),CDK1,weak inhibitory activity
same,IC50,CDK2,8.75 µM
same,inhibitory activity against CDK2 (in words),CDK2,weak inhibitory activity
same,IC50,CDK4,0.01 µM
same,inhibitory activity against CDK4 (in words),CDK4,strong inhibitory activity
same,IC50,CDK6,0.057 µM
same,inhibitory activity against CDK6 (in words),CDK6,strong inhibitory activity
same,brain permeability (in words),[1],can cross the blood-brain barrier
